In data set [1] the test system is Epstein-Barr Virus (EBV) early antigen. The following applies: published work; cited from earlier work.
Data set [2] in a line: Vero cell growth inhibition (Sulforhodamine B protein-dye binding). In kind it is cell-based, African green monkey. To be noted: African green monkey; cell growth inhibition, two days of continuous treatment; read-out: CC50 Vero. How it is done: (§1) The effect of compounds on host cell replication (CC50), was measured using Sulforhodamine B-staining and the spectrophotometric method originally developed for the NCIs's in vitro anti-cancer drug screening program (P. Skehan et al., J. Natl. Cancer. Inst. 82, 1107-1112 (1990)). The CC50 value is the concentration of compound that inhibited actively replicating cells by 50% of control respectively after two days of continuous treatment.
For orientation: Sulforhodamine B stains cellular protein and so reports cell mass.

The next data set deals with Vero. Described as above. The data set is classed as cell-based, African green monkey. How it is done:
as §1

In data set [3] the test system is HSV-2. Description: HSV-2 plaque-elimination assay in Vero cells. To be noted: 100 μM, data not shown. In kind it is cell-based, HSV-2 (strain 186). As to the method:
(§2) Three types of antiviral assay were used for HSV studies. For plaque-elimination, Vero cells (70000 per cm^2) were infected with 50-100 PFU for 30 minutes with occasional agitation. The inoculate was replaced with medium containing 1% (v/v) fetal calf serum and supplemented with test agents as indicated (see below). After two days of culture, cells were processed using crystal violet staining and plaques were scored by visual examination (FIG. 3). For examination of anti-HSV activity in parallel cultures during biochemical experiments, the progeny virus obtained from cells and from the culture medium at 23 hours post-infection was determined by limiting dilution on Vero cells (FIG. 5A). Macroscopic viral plaques were scored after two days of incubation in medium containing 1% (w/v) carboxymethylcellulose and 0.5% (v/v) fetal calf serum. For ED50 measurements, the concentration of compound that reduced a single-cycle of viral yield by 50% relative to the control and under the specified condition was interpolated from dose-response graphs (FIG. 4, Table 1). Over the course of ten independent experiments, the mean cell-associated viral yield was 180 PFU per cell (SD=80) and 10 PFU per cell (SD=5) for HSV-1 and HSV-2 respectively. The percent viral release (into the culture medium) was 16 (SD=7) and 0.9 (SD=0.6) for HSV-1 and HSV-2 respectively. These virologic parameters were independent of viral load and serum concentration.

The test system of a further data set is HSV-1. Description: HSV-1 viral yield-reduction assay in Vero cells. In kind it is cell-based, HSV-1 (KOS). The following applies: Human alphaherpesvirus 1, Vero, read-out: ED50 HSV-1. How it is done:
as §2

The nature of data set [4]: HEL cell growth inhibition (Sulforhodamine B protein-dye binding). The data set is classed as cell-based, human. The following applies: human; cell growth inhibition, two days of continuous treatment. As to the method:
as §1

The subject of another data set is HEL. The description is as above. In kind it is cell-based, human. The following applies: at 50 μM. As to the method:
as §1

The test system of the next data set is HEL Cells. Description: HEL cells replicated in presence of compound for 12 days (morphology, replication rate). To be noted: 0.5 or five micromolar for 12 days (four passages). The data set is classed as cell-based, human. The source says: HEL Cells were replicated in the presence of either 0.5 or five micromolar compound 2 for 12 days (four passages) then they were compared to untreated HEL cells as a host for HCMV replication in the presence or absence of the drug. […] Cultures were infected with ten-times the viral load used for plaque assay and were fixed, stained and photographed after seven days of infection (panel B). A detailed method is described in the examples below. The horizontal rows labeled as HEL, HEL (0.5) and HEL (5.0) represent cells cultured in the absence or presence of 0.5 and 5 micromolar 2 respectively. Labeled columns indicate mock-infected (M), infected (I) and treated after viral infection with the same two concentrations of the compound.
(§3) To examine whether pre-treatment of cells influenced anti-HCMV activity of 1-hydroxy-3,7-dimethoxyacridone (2), a cytopathogenicity (CPE) reduction assay was used. The protocol was like the plaque-elimination assay except HEL cells were replicated in test compound (3-12 days or from 1-4 passages) prior to infection, cultures were infected with 500-1000 PFU HCMV and after five days, cells were stained with 0.8% (w/v) crystal violet in 50% ethanol in order to achieve contrast for photography.

In data set [5] the test system is HCMV. Description: HCMV plaque-elimination assay in HEL cells. The data set is classed as cell-based, HCMV (Towne). How it is done:
Virus and cell growth inhibition assays. Established virus culture techniques were used (E.-S. Huang, and T Kowalnick, Diagnosis of human cytomegalovirus infection: laboratory approaches, in Molecular Aspects of Human Cytomegalovirus Diseases (Becker,Y., Daria, G., and Huang, E.-S. eds.), Springer-Verlag, Berlin, pp. 225-255 (1993); Akanitapichat et al., Antiviral Research 45: 123-134 (2000)) but with the following modifications. For the HCMV plaque-elimination assay, HEL cells were plated in standard medium at 60,000 per cm^2 and infected the following day with 50-100 PFU HCMV for 90 minutes with occasional agitation. The inoculate was replaced with maintenance medium containing 5% (v/v) fetal calf serum and test agents as indicated (see below). After an additional 6-10 days of culture, cells were fixed with formal saline (10% formalin in phosphate-buffered saline; PBS), stained with 0.1% (w/v) toluidine blue in PBS and plaques were scored using an inverted light microscope at 40x magnification (FIGS. 2A and 3). For ED50 determination, the value was interpolated from dose-response data and is the concentration of compound that reduced plaque formation by 50% relative to control under the specified condition.

Data set [6] relates to HCMV. Description: HCMV cytopathogenicity (CPE) reduction assay in HEL cells. In kind it is cell-based, HCMV (Towne).
Excerpt: as §3

Data set [7] deals with an assortment of human tumor cell lines. Description: Replication of human tumor cell lines. The data set is classed as cell-based. The following applies: at 50 μM, data not shown. As to the method:
as §1

The subject of data set [8] is HSV-2. Description: HSV-2 viral yield-reduction assay in Vero cells. In kind it is cell-based, HSV-2 (strain 186). The following applies: Human alphaherpesvirus 2, Vero, read-out: ED50 HSV-2. As to the method: as §2

Some results are limits rather than exact numbers.

In the case of 5-hydroxynoracronicine, the “concentration blocking activation of EBV early antigen” value in data set [1] is reported as “submicromolar concentration”.

Consider `COc1cc(O)c2c(=O)c3cc(OC)ccc3[nH]c2c1` [Compound 2, 3,7-dimethoxy-1-hydroxy-acridone], for which the CC50 at 2 days in [2] and in data set [4] was over 50 µM each time. The “inhibition of Vero cell replication” value in the data set with Vero (at 50 μM) was “inactive”. Further, the “percent inhibition observed at the highest concentration tested, Vero growth” value in the data set with Vero (number in parenthesis, highest concentration tested) is 7%. Moreover, the “effect on HSV at highest concentration tested” value with HSV-2 [3] was “without effect on HSV”. For the same molecule, the EC50 in the data set on HSV-1 is over 50 µM; in the data set on HCMV [5] (Human betaherpesvirus 5, HEL, read-out: ED50 HCMV), 1.4 µM; with HSV-2 [8] it was over 50 µM. For the same molecule, the “inhibition of HEL cell replication” value with HEL was “inactive”. Further, the “effect on cell morphology and cell viability” value in the data set on HEL Cells is given as “no effect on cell morphology or cell viability”. In addition, the “selectivity as anti-HCMV agent” value in the data set on HCMV [5] (cell replication vs HCMV ED50) was “greater than 35 fold”. The “amelioration of HCMV cytopathogenicity after pre-treatment” value in the data set with HCMV [6] (HEL cells cultured 12 days in 0.5 μM before infection) was “some amelioration of HCMV cytopathogenicity”. In addition, the “protective effect against HCMV cytopathogenicity after pre-treatment” value with HCMV [6] (HEL cells cultured 12 days in 5 μM before infection) is given as “even apparent in the absence of sustained treatment post-infection”. Also, the “protection against HCMV cytopathogenicity” value in the data set with HCMV [6] (higher viral loads, with or without pretreatment of HEL cells) is “did not protect against HCMV cytopathogenicity unless HEL cells were pretreated prior to viral infection”. The “inhibition of human tumor cell line replication” value in [7] is “inactive”.

(Values after patent US20050049273A1, “Acridone derivatives as anti-herpesvirus agents” (priority 2003, published 2005).)
